Test results: patent US20250170118A1, “PHARMACEUTICAL COMPOSITION FOR PREVENTING OR TREATING WET AGE-RELATED MACULAR DEGENERATION” (UIF (University Industry Foundation), Yonsei University, priority 2023, published 2025)

Experiments:
Format in all cases: in vivo, C57BL/6 J mice
[1] = system: choroidal neovascularization (CNV) mouse model; experiment: Laser-induced choroidal neovascularization (CNV) mouse model of wet AMD: size of neovascularization (FFA, Isolectin B4 staining); details: 7 days after laser; for size of neovascularization compared to the PBS control group: NMN/NR 500 mg per kg i.p. daily for 10 days, Aflibercept intravitreal, FFA and Isolectin B4 staining, p<0.001 vs PBS
Description: (§1) In this study, 8-week-old (18-20 g) C57BL/6 J adult mice were used. The mice were maintained according to the guidelines for the use of animals in ophthalmic and vision research set forth by the Association for Research in Vision and Ophthalmology (ARVO). All animal experiments were approved by the Institutional Animal Care and Use Committee (IACUC) of Yonsei University College of Medicine (IACUC number: 2022-0279). C57BL/6 J mice were maintained on a 12:12 hour light/dark cycle.
(§2) Mice were anesthetized using a 1:1 mixture of tiletamine and zolazepam (15 mg per kg body weight) along with Xylazine hydrochloride (10 mg per kg body weight). The pupils were dilated using Phenylephrine (0.5%) and tropicamide (0.5%). During the anesthesia and pupil dilation, a heating pad was used to maintain the body temperature at 37° C.
(§3) After confirming pupil dilation, the mice were positioned on the support of the laser device (GYC-1000 Specifications, 532 nm). A drop of 2% Hypromellose solution was placed on the corneal surface, and a glass cover slip was positioned to contact the cornea for visualization of the fundus. Additionally, the height and distance of the support were adjusted to ensure the laser was accurately positioned on the retina.
(§4) The settings for the laser used in the experiment were as follows: output: 150 mW/spot size: 50 μm, time: 50 ms. After positioning the optic nerve in the center, the laser direction was indicated using a clock face, applying a total of 4 laser shocks at the 3 o'clock, 6 o'clock, 9 o'clock, and 12 o'clock positions, once each. The successful performance of the laser shock was confirmed by the generation of bubbles in the retina, with no hemorrhage observed in the retina.
(§5) To compare the choroidal neovascularization (CNV) induced by the laser shock, mice were sacrificed 7 days after the laser shock, and to evaluate the fibrosis induced by the laser shock in the sub-retinal area, mice were sacrificed 4 weeks after the laser shock.
In this study, Nicotinamide mononucleotide (NMN) purchased from ORIENTAL YEAST CO and Nicotinamide riboside (NR) purchased from ChromaDex were used. Starting three days before the creation of the laser-induced mouse model, NMN and NR were administered intraperitoneally daily at a concentration of 500 mg per kg of body weight. […]
After the staining process was completed, the flat-mounted tissue was spread on the slide, a drop of mounting media was applied, and a glass cover was placed over it. Fluorescent images were taken using a fluorescence microscope (Olympus; BX43).
(§6) The size of neovascularization and fibrotic areas was measured using ImageJ software. […] Then, a threshold was applied to measure the size, followed by quantification of pixels. […]

subretinal fibrosis = experiment: Subretinal fibrosis in laser-induced neovascular wet macular degeneration model (Collagen type I staining, OCT); details: for expression of Collagen type 1 compared to the PBS negative control group: 500 mg per kg i.p. daily from three days prior, NMN vs PBS p<0.001, NR vs PBS p<0.002; for production of subretinal fibrosis associated with neovascular macular degeneration: FIG. 3 legend
Description: as §1, §2, §3, §4, §5
(§7) In this study, Nicotinamide mononucleotide (NMN) purchased from ORIENTAL YEAST CO and Nicotinamide riboside (NR) purchased from ChromaDex were used. Starting three days before the creation of the laser-induced mouse model, NMN and NR were administered intraperitoneally daily at a concentration of 500 mg per kg of body weight.
(§8) Mice were sacrificed using carbon dioxide, and the extracted eyeballs were fixed in 1% paraformaldehyde for 1 hour. After fixation, they were sequentially treated with 10%, 20%, and 30% sucrose solutions for 1 hour each. For sectioning, the eyeballs were positioned so that the connection between the optic nerve and the center of the cornea was horizontally aligned using OCT compound, and rapid freezing was performed using liquid nitrogen vapor. The eyeballs were stored at −70° C.
(§9) The eyeballs were sectioned to a thickness of […], and thereafter, staining procedures were performed using primary and secondary antibodies. After staining, a drop of mounting media was applied to the tissue on the slide, and a cover glass was placed over it.
For flat mounting, the muscle, cornea, lens, and neural retina were removed. Then, the retinal pigment epithelium/choroid/sclera complex was radially incised eight times to create a petal-like structure. It was placed in a 1 ml microtube and stained with primary and secondary antibodies. […]
as §6

[2] = system: senescence markers p16INK4a, p21CIP1, γ-H2AX, p53 and SA-β-gal in retinal pigment epithelium/choroid/sclera complex; experiment: Senescence phenotype in laser-induced neovascular wet AMD model (SA-β-gal staining, immunofluorescence of senescence markers)
Description: as §1, §2, §3, §4, §7, §8, §9
The primary antibodies used in this study are as follows: Isolectin GS-IB4, Alexa Fluor™ 488 conjugate (121411); Collagen I antibody (ab34710); p16INK4a antibody (ab108349); gamma H2A.X antibody (ab2893); p53 antibody (sc-126); p21CIP1 antibody (sc-6246).
Mouse eyes were enucleated, and the anterior segments were removed to isolate the retinal pigment epithelium/choroid/sclera complex. The complex was rinsed with cold PBS and then fixed at room temperature for 20 minutes using the fixative solution provided in the SA-β-galactosidase (SA-β-GAL) staining kit. Staining was performed using the staining solution mixture provided according to the manufacturer's instructions (BioVision; #K320). After overnight staining at 37° C., the samples were incubated at 55° C. for 45 minutes with 10% H2O2 to remove the pigment. Following rinsing with PBS, the samples were flattened using forceps and a surgical knife. Images were captured using a fluorescent microscope (Olympus; BX43).
SA-β-gal staining analysis, an early method for identifying senescent cells in tissues, was used. Additionally, the expression of senescence markers such as p16INK4a, p21CIP1, γ-H2AX, and p53 is increased in senescent cells. […]

[3] = seventh day post-laser induction, immunofluorescence staining

Compound: Aflibercept [reference compound]
- neovascular size compared to the NMN and NR groups ([1]; Aflibercept vs NMN p>0.99, Aflibercept vs NR p>0.99): no significant difference
- size of neovascularization compared to the PBS control group [1]: significant reduction

Compound: NC(=O)c1ccc[n+]([C@@H]2O[C@H](CO)[C@@H](O)[C@H]2O)c1 [NR, nicotinamide riboside]
- size of neovascularization compared to the PBS control group [1]: significantly reduced
- expression of Collagen type 1 compared to the PBS negative control group (subretinal fibrosis; 28th day post-laser shock): significantly reduced
- production of subretinal fibrosis associated with neovascular macular degeneration (subretinal fibrosis): inhibit

Compound: nicotinamide mononucleotide [NMN]
- size of neovascularization compared to the PBS control group [1]: significantly reduced
- aging phenotype induced in a neovascular wet AMD model ([2]; FIG. 2 legend): inhibits
- SA-β-gal staining of the retinal pigment epithelium/choroid/sclera complex compared to the PBS group ([2]; seventh day post-laser induction, NMN 500 mg per kg i.p. daily): reduced
- expression of p16INK4a protein compared to PBS [2, 3]: decreased
- expression of p21CIP1 protein compared to PBS [2, 3]: decreased
- expression of p53 protein compared to PBS [2, 3]: decreased
- expression of γ-H2AX protein compared to PBS [2, 3]: decreased
- fibrosis by OCT and immunofluorescence staining on sections compared to the negative control group (subretinal fibrosis; 28th day post-laser shock, 500 mg per kg i.p. daily): reduced
- expression of Collagen type 1 compared to the PBS negative control group (subretinal fibrosis; 28th day post-laser shock): significantly reduced
- production of subretinal fibrosis associated with neovascular macular degeneration (subretinal fibrosis): inhibit
